Test results: patent US7132243B2, “Clonal expansion of T cells of unknown specificity and identification of ligand recognized by the clonally expanded T cells” (Juridical Foundation The Chemo-Sero-Therapeutic Research …, priority 2001, dated 2006)
Where no end group is shown, it is not given here.

Test system: 19.6.47 T cells
Assay: Proliferation reaction of isolated T cell clone with cedar pollen antigen and synthetic peptide
Format: cell-based, human
Conditions: radiated (45 Gy) PBMC; FIG. 5
Description: Purified Cry j I protein (closed bar: 50 μg/ml, hatched bar: […], and open bar: 0.5 μg/ml), Cry j I p301–321 (closed bar: 250 μM, hatched bar: 25 μM, and open bar: 2.5 μM), and irrelevant (irrelevant peptide: […](SEQ ID NO: 3)).
The donor of 19.6.47 T cells suffered from hay fever of Japanese cedar pollen and said T cells were established during heavy pollination season. In this respect, a major allergen of Japanese cedar pollen (Cryptomeria japonica I; Cry j I) among the three non-autologous peptides shown in Table 3 was considered to be a possible peptide ligand recognized by said T cell clone. Thus, a synthetic peptide Cry j I p301–321 ([…](SEQ ID NO: 4)) and purified Cry j I protein were examined for their reactivity with the 19.6.47 T cells. A major allergen of Japanese cedar (Cryptomeria japonica) pollen was purified as described in Matsushita, S. et al., J. Immunol., 1987, 138: 109–115.
The 19.6.47 T cells were cultured with radiated (45 Gy) PBMC either in the presence of purified Cry j I protein ([…]), Cry j I p301–321 peptide ([…]) or irrelevant peptide.

DVFYNGAYFVSSGKYEGGNIY (SEQ ID NO: 4) [Cry j I p301–321]
reactivity with the 19.6.47 T cells (proliferation): reacted

B1: purified Cry j I protein: purified major allergen of Japanese cedar (Cryptomeria japonica) pollen (protein)
chain: DNPIDSCWRGDSNWAQNRMKLADCAVGFGSSTMGGKGGDLYTVTNSDDDPVNPAPGTLRYGATRDRPLWIIFSGNMNIKLKMPMYIAGYKTFDGRGAQVYIGNGGPCVFIKRVSNVIIHGLYLYGCSTSVLGNVLINESFGVEPVHPQDGDALTLRTATNIWIDHNSFSNSSDGLVDVTLTSTGVTISNNLFFNHHKVMLLGHDDAYSDDKSMKVTVAFNQFGPNCGQRMPRARYGLVHVANNNYDPWTIYAIGGSSNPTILSEGNSFTAPNESYKKQVTIRIGCKTSSSCSNWVWQSTQDVFYNGAYFVSSGKYEGGNIYTKKEAFNVENGNATPQLTKNAGVLTCSLSKRC
reactivity with the 19.6.47 T cells (proliferation): reacted
